Experimental findings from US20160185820A1, “PRO[…], A GENE TRANSFER ENHANCER” (PHARIS BIOTEC GMBH, priority 2013, published 2016) are described below.

Non-standard residues stand in square brackets, D forms with d. Residues, ends and D or L forms follow the SMILES beside them. No end group written: not given here. pGlu = O=C1CC[C@@H](C(=O)O)N1

The nature of data set [1]: Storage stability in aqueous solution (HPLC chromatogram, FIG. 1). It is filed as physicochemical. The settings on record: storage at 4° C. for 13 days. On the procedure: In the left column of FIG. 1 (HPLC chromatogram), results for protransduzin A upon storage for 0-13 days at −20° C. and at 4° C. (13 days) are compared with the results for protransduzin B under the same conditions.

Another data set concerns cells. The data set is described as follows: Transduction of cells with protransduzin B. The data set is classed as cell-based. The following applies: 25 μg/ml protransduzin B, cells incubated 2 days. As for the experimental part:
Dissolve 0.5 mg of protransduzin B in 50 μl of DMSO. Then add 450 μl of PBS to the solution, fibrils forming within 3 min. Add this stock solution (1 mg/ml) to the vectors to obtain a concentration of protransduzin B of 25 μg/ml. Vortex the solution for 1 min, then centrifuge with 5000 g for 5 min. The supernatant is discarded, and the pellet is suspended in a little PBS and added to the cells. The cells are incubated in an incubator for 2 days.

For `CC[C@H](C)[C@H](NC(=O)[C@H](CCCCN)NC(=O)[C@H](CS)NC(=O)[C@@H]1CCC(=O)N1)C(=O)N[C@@H](CCCCN)C(=O)N[C@@H](CCC(N)=O)C(=O)N[C@H](C(=O)N[C@H](C(=O)N[C@@H](CC(N)=O)C(=O)N[C@@H](CCSC)C(=O)N[C@@H](Cc1c[nH]c2ccccc12)C(=O)N[C@@H](CCC(N)=O)C(=O)O)[C@@H](C)CC)[C@@H](C)CC` [protransduzin B] ([pGlu]CKIKQIINMWQ-OH), the “degradation upon storage (HPLC peak height)” value in data set [1] is “hardly degraded at all”. In addition, in the data set with cells, the cells transduced result is listed as “Up to 96%” and the transduction rate entry is “significantly enhanced”.
“QCKIKQIINMWQ [protransduzin A, reference compound]”: the “degradation upon storage (HPLC peak height)” value in data set [1] was “degraded almost to one half”.
